The experiment relates to drug-resistant Mycobacterium tuberculosis. Kind of experiment: Mycobacterium tuberculosis assay. It is filed as cell-based.

Where no end group is shown, it is not given here.

Regarding “Phe-Glu-Trp-Thr-Pro-Gly-Tyr-Trp-Gln-Pro-Tyr-Ala-Leu-Pro-Leu-OH (FEWTPGYWQPYALPL-OH) [Peptide 2]”, the “inhibition of the growth of Mycobacterium tuberculosis” value is 100%.

“Leu-Val-Val-Tyr-Pro-Trp-Thr-Gln-Arg-OH (LVVYPWTQR-OH) [Peptide 1]”: the “inhibition of the growth of Mycobacterium tuberculosis” value was found to be 100%.

Source of the values: patent publication US20100204135A1, “USE OF LVV-HEMORPHIN-6 AND OPTIONALLY AF12198 AS THERAPEUTIC AGENT(S)” (priority 2007, published 2010).
